Laboratory results as given in paper PMC8387461, “T cell receptor recognition of hybrid insulin peptides bound to HLA-DQ8” (Nature Communications, 2021).

Legend:
[1] = tested on: SKW-3 A2.13 TCR cells; assay: CD69 upregulation, SKW-3 A2.13 TCR cells; type: cell-based, human; details: for MFI CD69: exp5
Description: (§1) For TCR transduced SKW-3 T cell lines (SKW-3-TCR), response to antigen was determined using flow cytometry to assess the level of upregulation of the T cell activation marker CD69. One hundred thousand BLCL 9031 cells (HLA-DQ8 + : HLA-DQA*03:01:01, HLA-DQB1*03:02) as APCs were incubated at 37 °C, 5% CO2 for 24 h with increasing concentrations of synthesised HIP ([…]; GLBiochem) or native C-peptide ([…]; GLBiochem) or 50 μg DQ8-glia-α1 (control) in 96 well round-bottomed plates. To confirm HLA-DQ8-restriction, 2 μg/ml (SKW-3-ET672-1) or 50 μg/ml (all other SKW-3-TCR cell lines) C-peptide or HIP pulsed BLCL 9031 cells were blocked with a final concentration of 20 μg/ml anti-HLA-DQ monoclonal antibody (clone SPV-L3) for 3 h before stimulation (i.e. before the addition of SKW-3-TCR cell lines). T-cell activation assay were performed by mixing 1 × 10^5 SKW-3-TCR cells, SKW-3 parental cells (control) or SP3.4 (HLA-DQ8-glia-α1 restricted T cell line; control) cells with the peptide-pulsed BLCL 9031 cells or with 5 μl anti-CD3/CD28 dynabeads (Thermo Fisher Scientific) (control) at 37 °C, 5% CO2 for 20 h before antibody staining. The activated induced SKW-3-TCR T cells were washed twice with FACS buffer (Phosphate buffered saline, 10% Fetal Calf Serum (FCS; Merck)) (350 g, 5 min), and stained a mixture of 1:100 diluted V450 mouse anti-human CD3 (clone UCHT1, BD Biosciences) and APC Mouse Anti-Human CD69 (Clone FN50, BD Biosciences) for 1 h on ice in the dark. The samples were washed twice with PBS buffer (350 g, 5 min) to remove excess antibodies. Afterward, the samples were stained for live/dead cells with Zombie NIR (Biolegend) for 30 min at RT in the dark before being washed 6 times with FACS buffer (350 g, 5 min). Before data acquisition, the samples were resuspended in 100 μl of FACS buffer and analysed via flow cytometry (LSR II; BD Biosciences; BD FACSDiva-8.0.1 software). Collected data were analysed using Flowjo v10.6.0 (FlowJo), and then Prism 9 (GraphPad Software). […] Using these settings, the median fluorescence intensity (MFI) corresponding to the relative level of CD69 expressed on the SKW-3-TCR.TCR cell lines was determined using Flowjo v10.6.0 software. The MFI of CD69 were analysed by using Prism 9 (GraphPad Software). Three to six independent experiments were conducted, and all sample were performed in duplicates. Statistical significance was determined using P-values generated by t-test or one-way ANOVA multiple comparison of the MFI of no-peptide-stimulated SKW-3-TCR T cells versa the MFI of peptide-stimulated SKW-3-TCR T cells.
(§2) Supplementary Figure 1. Antigen reactivity of T cells transduced with TCRs isolated from T1D patient clones and recent onset T1D patient PBMCs. a, b Expression of CD69 on the surface of TCR transduced SKW3 cell lines stimulated overnight with C-peptide-p ulsed BLCL 9031 (top panel), or HIP-p ulsed BLCL 9031 (bottom panel). The SKW3 cell lines transduced with a TCRs isolated from primary T1D T clones and b TCRs isolated from recent onset T1D patient PBMCs (TCR name indicated above the graphs), were cultured with BLCL 9031 (no peptide) or with serial diluted concentration of peptide as indicated (grey), or 50 µg/ml C-peptide/HIP-pulsed BLCL 9031 blocked by anti-H LA-D Q mAb (clone SPV-L3; 20 µg/ml) (black), or 50 µg/ml glia-α1-p ulsed BLCL 9031 (purple; control), or 50 µg/ml C-peptide/HIP peptide only (cyan; control), or T cell lines alone (pink; control). Due to the strong reactivity of the SKW-T CR E672-1 cell line to HIP, only 2 µg of HIP was used in anti-HLA-D Q mAb blocking experiments. All samples were performed in duplicates and the black dots are presented as the mean fluorescence intensity (MFI) of average of duplicated values from three to six (n=3, n=4, n=5 or n=6) independent experiments. […]
(§3) expression. The fold increase in MFI CD69 expression was calculated by dividing the average MFI CD69 from each sample by the average MFI CD69 from BLCL 9031 (no […]
(§4) peptide). […]

[2] = tested on: SKW-3 A5.5 TCR cells; assay: CD69 upregulation, SKW-3 A5.5 TCR cells; type: cell-based, human;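 as to Geometric CD3: measured on live single GFP+ RFP+ cells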
Description: as §1, §2, §3, §4

[3] = CD69 MFI, flow cytometry, peptide-pulsed BLCL 9031, 20 h
[4] = exp4, T cell +pep, 50 ug, replicate 1
[5] = exp4, T cell +pep, 50 ug, replicate 2
[6] = exp4, block, 50 ug, replicate 1
[7] = exp4, block, 50 ug, replicate 2
[8] = exp5, T cell +pep, 50 ug, replicate 1
[9] = exp5, T cell +pep, 50 ug, replicate 2
[10] = exp5, block, 50 ug, replicate 1
[11] = exp5, block, 50 ug, replicate 2

Substance: GQVELGGGNAVEVLK [HIP]
- sensitivity to HIP versus C-peptide [1, 3]: five fold more sensitive to HIP than C-peptide
- sensitivity to HIP over C-peptide [2, 3]: ~ 3000 fold

Substance: Cpeptide
- MFI CD69 ([1]; 0.016 ug, replicate 1): 1218
- MFI CD69 ([1]; 0.016 ug, replicate 2): 1366
- MFI CD69 ([1]; 0.08 ug, replicate 1): 1349
- MFI CD69 ([1]; 0.08 ug, replicate 2): 1478
- MFI CD69 ([1]; 0.4 ug, replicate 1): 1535
- MFI CD69 ([1]; 0.4 ug, replicate 2): 1892
- MFI CD69 ([1]; 2 ug, replicate 1): 1776
- MFI CD69 ([1]; 2 ug, replicate 2): 2613
- MFI CD69 ([1]; 10 ug, replicate 1): 4442
- MFI CD69 ([1]; 10 ug, replicate 2): 4296
- MFI CD69 ([1]; 50 ug, replicate 1): 5931
- MFI CD69 ([1]; 50 ug, replicate 2): 5830
- MFI CD69 ([1]; 100 ug, replicate 1): 5697
- MFI CD69 ([1]; 100 ug, replicate 2): 6898
- MFI CD69 ([1]; T cell +pep, 50 ug, replicate 1): 712
- MFI CD69 ([1]; T cell +pep, 50 ug, replicate 2): 880
- MFI CD69 ([1]; block, 50 ug, replicate 1): 796
- Geometric CD3 ([2]; exp4, 0.016 ug, replicate 1): 970
- MFI CD69 ([2]; exp4, 0.016 ug, replicate 1): 898
- Geometric CD3 ([2]; exp4, 0.016 ug, replicate 2): 979
- MFI CD69 ([2]; exp4, 0.016 ug, replicate 2): 906
- Geometric CD3 ([2]; exp4, 0.08 ug, replicate 1): 1058
- MFI CD69 ([2]; exp4, 0.08 ug, replicate 1): 987
- Geometric CD3 ([2]; exp4, 0.08 ug, replicate 2): 1030
- MFI CD69 ([2]; exp4, 0.08 ug, replicate 2): 964
- Geometric CD3 ([2]; exp4, 0.4 ug, replicate 1): 1103
- MFI CD69 ([2]; exp4, 0.4 ug, replicate 1): 1037
- Geometric CD3 ([2]; exp4, 0.4 ug, replicate 2): 1058
- MFI CD69 ([2]; exp4, 0.4 ug, replicate 2): 984
- Geometric CD3 ([2]; exp4, 2 ug, replicate 1): 1233
- MFI CD69 ([2]; exp4, 2 ug, replicate 1): 1175
- Geometric CD3 ([2]; exp4, 2 ug, replicate 2): 1197
- MFI CD69 ([2]; exp4, 2 ug, replicate 2): 1130
- Geometric CD3 ([2]; exp4, 10 ug, replicate 1): 1614
- MFI CD69 ([2]; exp4, 10 ug, replicate 1): 1582
- Geometric CD3 ([2]; exp4, 10 ug, replicate 2): 1577
- MFI CD69 ([2]; exp4, 10 ug, replicate 2): 1557
- Geometric CD3 ([2]; exp4, 50 ug, replicate 1): 2018
- MFI CD69 ([2]; exp4, 50 ug, replicate 1): 2047
- Geometric CD3 ([2]; exp4, 50 ug, replicate 2): 1694
- MFI CD69 ([2]; exp4, 50 ug, replicate 2): 1685
- Geometric CD3 ([2]; exp4, 100 ug, replicate 1): 3490
- MFI CD69 ([2]; exp4, 100 ug, replicate 1): 3626
- Geometric CD3 ([2]; exp4, 100 ug, replicate 2): 3657
- MFI CD69 ([2]; exp4, 100 ug, replicate 2): 3824
- Geometric CD3 [2, 4]: 739
- MFI CD69 [2, 4]: 670
- Geometric CD3 [2, 5]: 745
- MFI CD69 [2, 5]: 679
- Geometric CD3 [2, 6]: 1084
- MFI CD69 [2, 6]: 1022
- Geometric CD3 [2, 7]: 1068
- MFI CD69 [2, 7]: 1007
- Geometric CD3 ([2]; exp5, 0.016 ug, replicate 1): 1160
- MFI CD69 ([2]; exp5, 0.016 ug, replicate 1): 1101
- Geometric CD3 ([2]; exp5, 0.016 ug, replicate 2): 1175
- MFI CD69 ([2]; exp5, 0.016 ug, replicate 2): 1127
- Geometric CD3 ([2]; exp5, 0.08 ug, replicate 1): 1165
- MFI CD69 ([2]; exp5, 0.08 ug, replicate 1): 1110
- Geometric CD3 ([2]; exp5, 0.08 ug, replicate 2): 1145
- MFI CD69 ([2]; exp5, 0.08 ug, replicate 2): 1084
- Geometric CD3 ([2]; exp5, 0.4 ug, replicate 1): 1217
- MFI CD69 ([2]; exp5, 0.4 ug, replicate 1): 1166
- Geometric CD3 ([2]; exp5, 0.4 ug, replicate 2): 1219
- MFI CD69 ([2]; exp5, 0.4 ug, replicate 2): 1163
- Geometric CD3 ([2]; exp5, 2 ug, replicate 1): 1325
- MFI CD69 ([2]; exp5, 2 ug, replicate 1): 1295
- Geometric CD3 ([2]; exp5, 2 ug, replicate 2): 1288
- MFI CD69 ([2]; exp5, 2 ug, replicate 2): 1227
- Geometric CD3 ([2]; exp5, 10 ug, replicate 1): 1582
- MFI CD69 ([2]; exp5, 10 ug, replicate 1): 1562
- Geometric CD3 ([2]; exp5, 10 ug, replicate 2): 1544
- MFI CD69 ([2]; exp5, 10 ug, replicate 2): 1512
- Geometric CD3 ([2]; exp5, 50 ug, replicate 1): 2599
- MFI CD69 ([2]; exp5, 50 ug, replicate 1): 2696
- Geometric CD3 ([2]; exp5, 50 ug, replicate 2): 2645
- MFI CD69 ([2]; exp5, 50 ug, replicate 2): 2725
- Geometric CD3 ([2]; exp5, 100 ug, replicate 1): 3392
- MFI CD69 ([2]; exp5, 100 ug, replicate 1): 3527
- Geometric CD3 ([2]; exp5, 100 ug, replicate 2): 3273
- MFI CD69 ([2]; exp5, 100 ug, replicate 2): 3433
- Geometric CD3 [2, 8]: 840
- MFI CD69 [2, 8]: 793
- Geometric CD3 [2, 9]: 856
- MFI CD69 [2, 9]: 819
- Geometric CD3 [2, 10]: 761
- MFI CD69 [2, 10]: 694
- Geometric CD3 [2, 11]: 846
- MFI CD69 [2, 11]: 770
